From article PMC12349723, “Computationally accelerated identification of P-glycoprotein inhibitors” (PLOS One, 2025)
Like-named read-outs stand apart in the source and are kept apart here.

Columns and labels:
DU145 cells = assay: MTT viability assay, non-P-gp overexpressing DU145 parental line, with or without PTX; format: cell-based, human; details: for Sensitization of DU145 cells to PTX: 15 µM compound + PTX vs PTX alone; for viability at 15 µM: Homo sapiens, DU-145, 48 h
Description: The chemotherapeutic sensitive DU145 human prostate cancer cells and the multidrug resistant sub-line, DU145-TXR, were generous gifts from Dr. Evan Keller (University of Michigan, Ann Arbor, MI). The MDR, P-gp overexpressing DU145-TXR cells were maintained under positive selection pressure by supplementing complete medium with 10 nM paclitaxel (Acros Organics, NJ). […] The MDR, P-gp overexpressing A2780-ADR cell line was maintained under positive selection pressure by supplementing complete medium with 100 nM doxorubicin (Fisher Scientific, NJ). The non-cancerous HFL1 (human lung fibroblast) cell line cell line was a generous gift from Dr. Robert Harrod (Southern Methodist University, Dallas, TX) and was maintained in complete F12K media consisting of F12K with 10% fetal bovine serum, 100 U/mL penicillin, and 100 µg/mL streptomycin (Gibco). Flasks and 96 well plates that were used with the non-cancerous line HFL1 were pre-treated with 0.1 mg/ml Collagen Type 1 (Gibco) and rinsed with PBS (Fisher).
Culture of the DU145, DU145-TXR, and HFL1 cell lines was performed as described in [8]. Culture of the A2780 and A2780-ADR cell lines was performed as described in [9]. MTT assays were performed as described in [8] with minor modifications. […] Data represent the mean of two separate experiments, with n = 3 samples per experiment (n = 6 total) (S4 Table).
MTT assays measure the reduction of yellow, water soluble 3-(4,5-dimethylthiazol-2-yl)-2,5-diphenyltetrazolium bromide (MTT) to blue, insoluble formazan crystals by cellular reductase processes in living cells. Cells were trypsinized from monolayers and seeded in complete medium in 96 well plates. Cancerous cell lines (DU145, DU145-TXR, A2780, A2780-ADR) were seeded at 3,000 cells per well in complete RPMI medium. The non-cancerous HFL1 line was seeded at 4,000 cells per well in complete F12K medium, in collagen-treated plates (Collagen Type 1, Gibco). Cells were incubated with experimental compounds for 48 hours at 37 °C and 5% CO2 in a humidified incubator. At 48 hours, MTT was added (20 µL/well of 5 mg/mL MTT in PBS) to each well. After incubation for 4 hours, the media was removed, and the formazan crystals were dissolved in 100 µL DMSO per well. Plates containing the semi-adherent A2780 or A2780-ADR lines were spun at 1400 rpm for 3 minutes prior to aspiration of media, and the addition of DMSO. Plates were shaken for 10 minutes at 500 rpm on an Orbital shaker (LabDoctor from MidSci, St Louis, MO). The absorbance was measured at 570 nm using a Bio-Tek Cytation 5 (Bio-Tek, Winooski, VT). The measured absorbance value was correlated with the number of metabolically active cells in that well, corrected for absorbance of media. The percent of cell viability (termed ‘survival’ here) was calculated as a percentage of survival of the control condition, which refers to vehicle-treated (DMSO as vehicle) cells, or vehicle-and-chemotherapeutic-treated cells, if testing a compound’s ability to re-sensitize cells to a chemotherapeutic. Percent survival was calculated using the following equation:
% Survival=100 × absorbance of experimental cells/mean absorbance of control treated cells
For DU145-TXR, DU145, HFL1 and A2780 cells – data are the mean ± one standard deviation, 8 samples per compound, from at least two independent trials per compound. […] For A2780-ADR cells, data are the mean ± one standard deviation with 12 samples per compound, from at least two independent trials per compound.
67 compounds were chosen from computational screens for testing in vitro. A) DU145-TXR cells were exposed to 15 µM experimental compound with or without 500 nM of the P-gp substrate and chemotherapeutic paclitaxel (PTX).

P-gp [1] = target: T1, P-gp (Homo sapiens, UniProt P08183); assay: Top Hit classification from combined in vitro criteria; details: reverse MDR, do not increase PTX toxicity in chemo-sensitive cancer cells, non-toxic to noncancerous cells, not P-gp substrates
T1 construct: The MDR, P-gp overexpressing DU145-TXR cells were maintained under positive selection pressure; endogenous in cells; host or cells: DU145-TXR (paclitaxel-resistant sub-line of DU145 human prostate cancer cells)
T1 sequence (P08183 whole entry): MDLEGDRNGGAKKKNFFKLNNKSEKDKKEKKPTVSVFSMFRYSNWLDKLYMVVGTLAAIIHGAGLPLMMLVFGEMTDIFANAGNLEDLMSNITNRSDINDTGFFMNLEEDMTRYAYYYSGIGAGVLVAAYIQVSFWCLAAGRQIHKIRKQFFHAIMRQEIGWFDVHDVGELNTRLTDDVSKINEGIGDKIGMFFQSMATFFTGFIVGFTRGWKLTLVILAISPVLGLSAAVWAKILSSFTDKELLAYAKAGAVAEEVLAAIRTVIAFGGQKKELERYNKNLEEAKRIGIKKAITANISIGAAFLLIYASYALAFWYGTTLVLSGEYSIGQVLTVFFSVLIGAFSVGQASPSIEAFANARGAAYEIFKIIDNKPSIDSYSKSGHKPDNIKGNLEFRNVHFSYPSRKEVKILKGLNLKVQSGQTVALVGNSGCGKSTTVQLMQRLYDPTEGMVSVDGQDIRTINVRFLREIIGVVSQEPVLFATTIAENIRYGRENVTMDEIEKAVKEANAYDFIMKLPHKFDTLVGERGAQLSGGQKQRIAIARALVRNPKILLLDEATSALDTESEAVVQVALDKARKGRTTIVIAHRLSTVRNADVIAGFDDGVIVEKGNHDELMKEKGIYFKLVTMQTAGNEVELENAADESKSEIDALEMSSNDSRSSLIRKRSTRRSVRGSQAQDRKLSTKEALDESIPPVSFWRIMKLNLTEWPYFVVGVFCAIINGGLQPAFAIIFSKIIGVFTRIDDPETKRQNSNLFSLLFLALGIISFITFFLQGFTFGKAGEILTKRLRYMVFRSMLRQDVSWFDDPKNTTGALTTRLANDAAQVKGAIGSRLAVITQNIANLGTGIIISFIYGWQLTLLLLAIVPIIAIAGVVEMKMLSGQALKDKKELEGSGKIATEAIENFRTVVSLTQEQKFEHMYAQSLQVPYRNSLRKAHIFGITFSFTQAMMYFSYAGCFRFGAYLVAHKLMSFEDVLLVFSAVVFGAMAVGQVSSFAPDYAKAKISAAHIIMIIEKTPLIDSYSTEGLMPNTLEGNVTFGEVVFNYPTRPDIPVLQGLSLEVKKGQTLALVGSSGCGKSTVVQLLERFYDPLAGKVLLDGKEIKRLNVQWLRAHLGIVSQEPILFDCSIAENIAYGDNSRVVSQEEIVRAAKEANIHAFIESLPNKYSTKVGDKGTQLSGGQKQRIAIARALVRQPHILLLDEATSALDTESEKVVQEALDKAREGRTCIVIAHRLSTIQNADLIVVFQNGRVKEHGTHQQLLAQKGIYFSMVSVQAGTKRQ

P-gp [2] = assay: SWISS-ADME prediction of P-gp transport substrate; details: prediction compared to the LC-MS/MS intracellular accumulation data
Source text: Identifying P-gp inhibitors that are not transport substrates remains inherently challenging. To that end, computational tools such as the SWISS-ADME server attempt to use a molecule’s unique chemical and structural characteristics to predict whether it is likely to be a P-gp transport substrate. Our LC-MS/MS assays allowed us to retroactively test the validity of predictions from SWISS-ADME. […] Alternative identifiers for the molecules identified in this study are shown in S7 Table.
S1 Table. Known P-gp Inhibitors and Predicted Chemical Properties. A non-exhaustive list of known P-gp inhibitors and their selected chemical properties ^[64, 65]. Clinical trial outcomes were adapted from ^[10, 11]. Compounds were evaluated using the SWISS-ADME server ^[54]. […] “Predicted P-gp Substrate” - predicted by SWISS-ADME to be a transport substrate of P-gp. “Known P-gp Substrate” – In addition to being P-gp inhibitors, these molecules are: known transport substrates of P-gp, known non-transport substrates of P-gp, unknown whether it is a transport substrate of P-gp ^[66-68]. If the molecule is designated in a specific generation of P-gp inhibitors - First Generation P-gp inhibitors, Second generation P-gp inhibitors, Third generation P-gp inhibitors.

[3] = DU145 cells, 48 h, mean of 8 samples
[4] = DU145 cells, 48 h, mean of 8 samples, read-out: % Survival, Mean, 15 µM Compound alone

Row | SMILES | Sensitization of DU145 cells to PTX (DU145 cells) | % Survival, Mean, 15 µM compound + 500 nM PTX (DU145 cells; [3]) | viability at 15 µM (DU145 cells; [4]) | Top Hit (P-gp [1]) | Correct P-gp Substrate Prediction? (P-gp [2]) | % Survival, 15 µM Compound alone (individual samples) (DU145 cells; DU145 cells, 48 h, single samples, 2 trials x 4 samples) | viability at 15 µM (DU145 cells; DU145 cells, 48 h, single samples, 2 trials x 4 samples, read-out: % Survival, 15 µM Compound alone (individual samples))
1 | O=C(NCc1cccc(F)c1)c1nnn2c1Sc1c(C(=O)NCc3cccc(F)c3)nnn1CC2 [Compound 122, Fc1cccc(CNC(=O)c2nnn3CCn4nnc(C(=O)NCc5cccc(F)c5)c4Sc23)c1] | insignificantly sensitize DU145 cells to PTX | 19.4% | 60.9% | No | Yes | – | –
2 | CCN1CCN(Cc2c(C(=O)N/N=C3/C(=O)N(C)c4ccccc43)nnn2-c2nonc2N)CC1 [Compound 61, CCN1CCN(Cc2c(nnn2-c2nonc2N)C(=O)N\N=C2\C(=O)N(C)c3ccccc23)CC1] | – | 14.3% | 55.6% | No | Yes | – | –
3 | Cc1onc(-c2ccccc2)c1-c1nnc(Cn2cnc3ccccc3c2=O)o1 [Compound 111, Cc1onc(c1-c1nnc(Cn2cnc3ccccc3c2=O)o1)-c1ccccc1] | insignificantly sensitize DU145 cells to PTX | 19.3% | 73.5% | Yes | No | 72% | 80%
